Test results published in ChEMBL document CHEMBL5154907, “Discovery and Anti-Inflammatory Activity Evaluation of a Novel CDK8 Inhibitor through Upregulation of IL-10 for the Treatment of Inflammatory Bowel Disease In Vivo” (J Med Chem, 2022).
Active and inactive are the calls of the source. The rule behind the calls is not given here.

Key:
CDK8/Cyclin C = CDK8/Cyclin C (Homo sapiens, UniProt P49336); experiment: Inhibition of recombinant full length His tagged human CDK8/Cyclin C expressed in Baculovirus incubated for 60 mins in presence of ATP by ADP-Glo kinase assay
CDK8/Cyclin C, sequence (P49336 whole entry): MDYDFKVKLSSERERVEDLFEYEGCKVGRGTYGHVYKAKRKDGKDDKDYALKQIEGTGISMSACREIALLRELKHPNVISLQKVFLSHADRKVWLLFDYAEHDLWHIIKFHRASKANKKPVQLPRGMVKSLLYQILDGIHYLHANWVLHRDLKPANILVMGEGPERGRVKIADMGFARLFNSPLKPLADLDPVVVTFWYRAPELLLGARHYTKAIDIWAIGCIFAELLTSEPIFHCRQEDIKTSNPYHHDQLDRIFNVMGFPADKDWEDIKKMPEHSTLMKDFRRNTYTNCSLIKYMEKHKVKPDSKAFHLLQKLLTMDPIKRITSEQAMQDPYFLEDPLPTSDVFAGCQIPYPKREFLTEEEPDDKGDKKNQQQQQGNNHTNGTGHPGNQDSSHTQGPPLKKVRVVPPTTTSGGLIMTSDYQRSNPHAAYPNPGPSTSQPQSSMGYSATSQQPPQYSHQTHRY
CDK8/Cyclin C, sequence (P24863 whole entry, further chain): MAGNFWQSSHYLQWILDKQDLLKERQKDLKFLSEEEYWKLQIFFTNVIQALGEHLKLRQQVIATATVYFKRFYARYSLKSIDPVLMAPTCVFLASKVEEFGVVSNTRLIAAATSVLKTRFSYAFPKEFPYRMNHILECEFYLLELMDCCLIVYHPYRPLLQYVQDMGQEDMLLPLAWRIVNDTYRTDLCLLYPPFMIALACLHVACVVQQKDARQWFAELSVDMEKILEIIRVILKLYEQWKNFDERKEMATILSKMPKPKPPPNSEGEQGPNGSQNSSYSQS

[1] = biological target: Cyclin-dependent kinase 8 (Homo sapiens) (UniProt P49336); experiment: Binding affinity to CDK8 in human HCT-116 cells assessed as increase in thermal stability tolerance at 10 uM treated for 4 hrs followed by compound washout by CETSA assay; assay type: cell-based
Cyclin-dependent kinase 8 (Homo sapiens), sequence (P49336 whole entry): as the sequence (P49336 whole entry) above

[2] = biological target: Cyclin-dependent kinase 8 (Homo sapiens) (UniProt P49336); experiment: Binding affinity to CDK8 in human HCT-116 cells assessed as thermal stability at 49 degC treated for 4 hrs followed by compound washout by CETSA assay; assay type: cell-based; details: dose 0.5-10 µM, DDE = dose-dependent effect
BMDC [3] = experiment: Anti-inflammatory activity against R848 stimulated-mouse BMDC cells assessed as downregulation of IL-6 production by ELISA method; assay type: functional, cell-based
[4] = biological target: T1, Cyclin-dependent kinase 8 (Mus musculus) (UniProt Q8R3L8); experiment: Inhibition of CDK8 in IFN-gamma-stimulated mouse BMDC cells assessed as STAT-1 phosphorylation at Ser727 at 1 to 4 uM treated for 2 hrs followed by IFN-gamma stimulation for 12 hrs by western blot analysis; assay type: cell-based; details: dose 1-4 µM, time 14.0 hrs
T1 sequence (whole entry): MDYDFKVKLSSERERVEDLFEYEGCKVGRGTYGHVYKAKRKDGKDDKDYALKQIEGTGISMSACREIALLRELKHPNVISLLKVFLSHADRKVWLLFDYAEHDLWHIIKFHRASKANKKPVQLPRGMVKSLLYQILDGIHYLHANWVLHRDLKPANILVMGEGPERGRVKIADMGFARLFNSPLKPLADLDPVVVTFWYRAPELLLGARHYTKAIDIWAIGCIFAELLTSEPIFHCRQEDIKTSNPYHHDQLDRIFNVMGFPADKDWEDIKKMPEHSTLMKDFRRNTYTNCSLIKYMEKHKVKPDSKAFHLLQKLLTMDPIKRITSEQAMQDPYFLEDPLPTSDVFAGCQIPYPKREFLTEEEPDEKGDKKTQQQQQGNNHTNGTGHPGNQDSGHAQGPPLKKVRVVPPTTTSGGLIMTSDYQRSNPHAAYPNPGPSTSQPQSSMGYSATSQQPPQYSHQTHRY

BMDC [5] = experiment: Inhibition of NF-kappa-B phosphorylation in R848-stimulated mouse BMDC cells at 1 to 4 uM treated for 2 hrs followed by R848 stimulation for 12 hrs by western blot analysis; assay type: cell-based; details: dose 1-4 µM, time 14.0 hrs
[6] = Acute toxicity in 12 hr fasted ICR mouse assessed as effect on spleen at 2000 mg/kg, po measured after 7 days by hematoxylin and eosin staining based histopathological analysis; assay type: organism-based; details: in vivo, 168 h, time 7 day
[7] = Acute toxicity in 12 hr fasted ICR mouse assessed as effect on lung at 2000 mg/kg, po measured after 7 days by hematoxylin and eosin staining based histopathological analysis; assay type: organism-based; details: in vivo, 168 h, time 7 day
[8] = Stability in human liver microsomes; assay type: ADME, Microsome
[9] = Half life in Sprague-Dawley rat at 5 mg/kg, iv measured for 3 to 1440 mins by HPLC analysis; assay type: ADME, organism-based; details: in vivo, time 3-1440 min
[10] = MRT in Sprague-Dawley rat at 5 mg/kg, iv measured for 3 to 1440 mins by HPLC analysis; assay type: ADME, organism-based; details: in vivo, time 3-1440 min
[11] = MRT in Sprague-Dawley rat at 10 mg/kg, po measured for 3 to 1440 mins by HPLC analysis; assay type: ADME, organism-based; details: in vivo, time 3-1440 min
[12] = Cmax in Sprague-Dawley rat at 10 mg/kg, po measured for 3 to 1440 mins by HPLC analysis; assay type: ADME, organism-based; details: in vivo
Mus musculus [13] = experiment: Anti-inflammatory activity in DSS-induced C57BL/6 mouse model of inflammatory bowel disease assessed as reduction in colitis development by measuring disease activity index score at 5 to 20 mg/kg, po administered measured after 7 days; assay type: functional, organism-based; details: dose 5-20 mg/kg, time 7.0 day, DDE = dose-dependent effect
Mus musculus [14] = experiment: Anti-inflammatory activity in C57BL/6 mouse model of inflammatory bowel disease assessed as reduction in DSS-induced epithelium destruction in colon tissue at 5 to 20 mg/kg, po daily measured after 10 days by hematoxylin and eosin staining based histopathological analysis; assay type: functional, organism-based; details: dose 5-20 mg/kg, time 10.0 day
Mus musculus [15] = experiment: Anti-inflammatory activity in C57BL/6 mouse model of inflammatory bowel disease assessed as reduction in number of DSS-induced inflammatory cells in colon tissue at 5 to 20 mg/kg, po daily measured after 10 days by hematoxylin and eosin staining based histopathological analysis; assay type: functional, organism-based; details: dose 5-20 mg/kg, time 10.0 day
Mus musculus [16] = experiment: Anti-inflammatory activity in C57BL/6 mouse model of inflammatory bowel disease assessed as increase in DSS-induced IL-10 levels in serum administered orally daily measured after 10 days by ELISA method; assay type: functional, organism-based; details: dose 5-20 mg/kg, route po, time 10.0 day, DDE = dose-dependent effect
Mus musculus [17] = experiment: Anti-inflammatory activity in C57BL/6 mouse model of inflammatory bowel disease assessed as decrease in DSS-induced IL-6 levels in colon tissue at 5 to 20 mg/kg, po daily measured after 10 days by ELISA method; assay type: functional, organism-based; details: dose 5-20 mg/kg, time 10.0 day
Mus musculus [18] = experiment: Anti-inflammatory activity in C57BL/6 mouse model of inflammatory bowel disease assessed as increase in DSS-induced IL-10 levels in colon tissue administered orally daily measured after 10 days by ELISA method; assay type: functional, organism-based; details: dose 5-20 mg/kg, route po, time 10.0 day
Mus musculus [19] = experiment: Anti-inflammatory activity in C57BL/6 mouse model of inflammatory bowel disease assessed as reversal of DSS-induced TLR7 expression in colon tissue at 5 to 20 mg/kg, po measured after 10 days by western blot analysis; assay type: functional, organism-based; details: dose 5-20 mg/kg, time 10.0 day
Mus musculus [20] = experiment: Anti-inflammatory activity in C57BL/6 mouse model of inflammatory bowel disease assessed as decrease in DSS-induced ERK phosphorylation in colon tissue at 5 to 20 mg/kg, po measured after 10 days by western blot analysis; assay type: functional, organism-based; details: dose 5-20 mg/kg, time 10.0 day, DDE = dose-dependent effect
Mus musculus [21] = experiment: Anti-inflammatory activity in C57BL/6 mouse model of inflammatory bowel disease assessed as decrease in DSS-induced JNK phosphorylation in colon tissue at 5 to 20 mg/kg, po measured after 10 days by western blot analysis; assay type: functional, organism-based; details: dose 5-20 mg/kg, time 10.0 day, DDE = dose-dependent effect
Mus musculus [22] = experiment: Anti-inflammatory activity in C57BL/6 mouse model of inflammatory bowel disease assessed as decrease in DSS-induced P38 phosphorylation in colon tissue at 5 to 20 mg/kg, po measured after 10 days by western blot analysis; assay type: functional, organism-based; details: dose 5-20 mg/kg, time 10.0 day, DDE = dose-dependent effect
Mus musculus [23] = experiment: Anti-inflammatory activity in DSS-induced C57BL/6 mouse model of inflammatory bowel disease assessed as increase in IL-10 expression in colon tissue at 5 to 20 mg/kg, po measured after 10 days by western blot analysis; assay type: functional, organism-based; details: dose 5-20 mg/kg, time 10.0 day
Mus musculus [24] = experiment: Anti-inflammatory activity in DSS-induced C57BL/6 mouse model of inflammatory bowel disease assessed as increase in STAT3 phosphorylation in colon tissue at 5 to 20 mg/kg, po measured after 10 days by western blot analysis; assay type: functional, organism-based; details: dose 5-20 mg/kg, time 10.0 day
[25] = biological target: CDK8/Cyclin C (Homo sapiens) (UniProt P49336+P24863); experiment: Inhibition of recombinant full length His tagged human CDK8/Cyclin C expressed in Baculovirus at 200 nM incubated for 60 mins in presence of ATP by ADP-Glo kinase assay

CCc1ccccc1NC(=O)c1cncc(-c2ccc(C(=O)N3CCNCC3)cc2)c1
IC50 (CDK8/Cyclin C): 56 nM | Activity [1]: Active | Activity [2]: Dde | Activity (BMDC [3]): Active | inhibition [4]: Active | inhibition (BMDC [5]): Active | Activity [6]: Non-Toxic | Activity [7]: Non-Toxic | Stability [8]: Stable | half-life [9]: 1.83 h | MRT [10]: 1.97 h | MRT [11]: 2.03 h | Cmax [12]: 237 ng/mL | Activity (Mus musculus [13]): Dde | Activity (Mus musculus [14]): Active | Activity (Mus musculus [15]): Active | Activity (Mus musculus [16]): Dde | Activity (Mus musculus [17]): Active | Activity (Mus musculus [18]): Active | Activity (Mus musculus [19]): Active | Activity (Mus musculus [20]): Dde | Activity (Mus musculus [21]): Dde | Activity (Mus musculus [22]): Dde | Activity (Mus musculus [23]): Active | Activity (Mus musculus [24]): Active | inhibition [25]: 85%
